For 19 compounds, IC50 results are on record in patent publication US9150566B2, “2-(1,2,3-triazol-2-yl)benzamide and 3-(1,2,3-triazol-2-YL)picolinamide derivatives as orexin receptor antagonists” (ACTELION PHARMACEUTICALS LTD., priority 2011, dated 2015).

The target in one series is CYP3A4 (Homo sapiens (Human), UniProt P08684). As to the kind of experiment: CYP3A4 inhibition assay (human liver microsomes, testosterone 6β-hydroxylation). To be noted: read-out: CYP3A4 IC50, 40 μM testosterone. Background: Liver microsomes are vesicles of endoplasmic reticulum, rich in cytochrome P450 enzymes.
In the next series the target is human orexin-1 receptor (Homo sapiens (Human), UniProt O43613). Description: In vitro intracellular calcium measurements (FLIPR), antagonistic activity on orexin-1 receptor. The class given is cell-based. To be noted: CHO cells expressing human orexin-1 receptor; FLIPR; 3 nM orexin-A agonist; 120 min antagonist incubation; geometric mean if determined several times; read-out: IC50 OX1. Put shortly: (§1)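 Recombinant CHO lines bearing human OX1 or OX2 receptors received test antagonist 120 min before agonist addition.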
(Calcium assays in cells follow changes in intracellular calcium, usually with a dye or a luminescent sensor.)

The target in the next series is human orexin-2 receptor (Homo sapiens (Human), UniProt O43614). Description: In vitro intracellular calcium measurements (FLIPR), antagonistic activity on orexin-2 receptor. The class given is cell-based. The following applies: CHO cells expressing human orexin-2 receptor; FLIPR; 3 nM orexin-A agonist; 120 min antagonist incubation; geometric mean if determined several times; read-out: IC50 OX2. In short, it runs like this:
as §1

CYP3A4, sequence (P08684 whole entry): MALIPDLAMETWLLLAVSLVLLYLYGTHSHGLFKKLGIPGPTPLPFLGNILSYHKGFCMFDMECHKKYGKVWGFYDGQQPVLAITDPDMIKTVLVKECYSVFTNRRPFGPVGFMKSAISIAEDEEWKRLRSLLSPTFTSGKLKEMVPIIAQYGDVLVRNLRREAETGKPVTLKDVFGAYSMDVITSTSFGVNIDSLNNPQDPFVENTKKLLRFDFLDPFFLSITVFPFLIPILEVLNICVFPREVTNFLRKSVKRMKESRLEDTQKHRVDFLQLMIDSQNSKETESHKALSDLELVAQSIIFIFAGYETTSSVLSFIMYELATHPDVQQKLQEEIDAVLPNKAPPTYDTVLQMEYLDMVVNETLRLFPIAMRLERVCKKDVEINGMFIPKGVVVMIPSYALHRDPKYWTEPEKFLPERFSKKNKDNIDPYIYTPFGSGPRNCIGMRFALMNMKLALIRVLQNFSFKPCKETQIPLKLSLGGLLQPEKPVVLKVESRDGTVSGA
human orexin-2 receptor, sequence (O43614 whole entry): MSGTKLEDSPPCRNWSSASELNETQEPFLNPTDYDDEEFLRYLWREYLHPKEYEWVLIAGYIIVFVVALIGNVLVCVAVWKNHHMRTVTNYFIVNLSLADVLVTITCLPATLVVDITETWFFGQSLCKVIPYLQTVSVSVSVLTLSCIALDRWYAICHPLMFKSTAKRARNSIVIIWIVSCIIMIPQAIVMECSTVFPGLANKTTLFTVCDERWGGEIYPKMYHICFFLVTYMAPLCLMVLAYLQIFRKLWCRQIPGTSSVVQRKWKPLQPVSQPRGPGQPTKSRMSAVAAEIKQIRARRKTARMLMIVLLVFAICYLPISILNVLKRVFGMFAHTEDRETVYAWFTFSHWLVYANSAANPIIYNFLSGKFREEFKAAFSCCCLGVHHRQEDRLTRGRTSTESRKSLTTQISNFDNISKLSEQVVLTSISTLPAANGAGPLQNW
human orexin-1 receptor, sequence (O43613 whole entry): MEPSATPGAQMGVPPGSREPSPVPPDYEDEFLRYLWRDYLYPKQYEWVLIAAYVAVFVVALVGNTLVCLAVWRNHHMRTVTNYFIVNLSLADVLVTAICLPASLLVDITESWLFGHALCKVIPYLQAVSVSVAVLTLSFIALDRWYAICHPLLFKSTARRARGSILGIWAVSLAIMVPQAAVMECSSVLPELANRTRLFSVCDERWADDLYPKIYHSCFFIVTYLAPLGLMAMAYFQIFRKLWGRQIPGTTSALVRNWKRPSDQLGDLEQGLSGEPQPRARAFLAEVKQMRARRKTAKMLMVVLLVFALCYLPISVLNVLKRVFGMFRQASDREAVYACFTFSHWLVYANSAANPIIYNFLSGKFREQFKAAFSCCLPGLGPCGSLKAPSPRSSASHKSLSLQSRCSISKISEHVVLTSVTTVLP

One may read the IC50 as the concentration that inhibits the measured activity by half. Take `O=C(c1ccccc1-n1nccn1)N1CCOC[C@H]1Cc1cccc(-c2ncccn2)c1` [Example 18, [(R)-3-(3-Pyrimidin-2-yl-benzyl)-morpholin-4-yl]-(2-[1,2,3]triazol-2-yl-phenyl)-methanone]: the values for the 50% inhibitory concentration (IC50) on CYP3A4, at human orexin-1 receptor and on human orexin-2 receptor were 39 µM, 0.022 µM and 1.89 µM, respectively.
For `C[C@@H]1CN(C(=O)c2cccc(Cl)c2-n2nccn2)[C@H](Cc2cccc(-n3nccn3)c2)CO1` [Example 172, (3-Chloro-2-[1,2,3]triazol-2-yl-phenyl)-[(2R,5R)-2-methyl-5-(3-[1,2,3]triazol-2-yl-benzyl)-morpholin-4-yl]-methanone] the same measures were 23 µM, 0.003 µM and 0.093 µM.
For `Cc1ccc(-n2nccn2)c(C(=O)N2C[C@@H](C)OC[C@H]2Cc2cccc(-c3ncccn3)c2)c1` [Example 109, [(2R,5R)-2-Methyl-5-(3-pyrimidin-2-yl-benzyl)-morpholin-4-yl]-(5-methyl-2-[1,2,3]triazol-2-yl-phenyl)-methanone] the same measures were 43 µM, 0.001 µM and 0.105 µM.
For `Cc1ccc(-n2nccn2)c(C(=O)N2CCOC[C@H]2Cc2cccc(-n3cccn3)c2)n1` [Example 53, (6-Methyl-3-[1,2,3]triazol-2-yl-pyridin-2-yl)-[(R)-3-(3-pyrazol-1-yl-benzyl)-morpholin-4-yl]-methanone] the same measures were more than 50 µM, 0.027 µM and 3.4 µM.
Take `O=C(c1cc(Cl)ccc1-n1nccn1)N1CCOC[C@H]1Cc1cc(-c2ncccn2)ccc1F` [Example 159, (5-Chloro-2-[1,2,3]triazol-2-yl-phenyl)-[(R)-3-(2-fluoro-5-pyrimidin-2-yl-benzyl)-morpholin-4-yl]-methanone]: the IC50 worked out at 17 µM on CYP3A4, 0.006 µM at human orexin-1 receptor and 0.49 µM on human orexin-2 receptor.
Taken in the same sequence, the figures for `O=C(c1cc(Cl)ccc1-n1nccn1)N1CCOC[C@H]1Cc1cccc(-c2ncon2)c1` [Example 84, (5-Chloro-2-[1,2,3]triazol-2-yl-phenyl)-[(R)-3-(3-[1,2,4]oxadiazol-3-yl-benzyl)-morpholin-4-yl]-methanone] were 21 µM, 0.005 µM and 0.246 µM.
For `COc1ccc(-n2nccn2)c(C(=O)N2CCOC[C@H]2Cc2cc(-n3nccn3)ccc2F)c1F` [Example 133, (2-Fluoro-3-methoxy-6-[1,2,3]triazol-2-yl-phenyl)-[(R)-3-(2-fluoro-5-[1,2,3]triazol-2-yl-benzyl)-morpholin-4-yl]-methanone] the same measures were 37 µM, 0.022 µM and 2.6 µM.
Regarding `C[C@@H]1CN(C(=O)c2cc(Cl)ccc2-n2nccn2)[C@H](Cc2cccc(-n3nccn3)c2)CO1` [Example 184, (5-Chloro-2-[1,2,3]triazol-2-yl-phenyl)-[(2R,5R)-2-methyl-5-(3-[1,2,3]triazol-2-yl-benzyl)-morpholin-4-yl]-methanone], the IC50 on CYP3A4 is 19 µM; on human orexin-1 receptor, 0.002 µM; on human orexin-2 receptor, 0.096 µM.
For the compound `Cc1cccc(C(=O)N2C[C@@H](C)OC[C@H]2Cc2cc(-c3ncccn3)ccc2F)c1-n1nccn1` [Example 150, [(2R,5R)-5-(2-Fluoro-5-pyrimidin-2-yl-benzyl)-2-methyl-morpholin-4-yl]-(3-methyl-2-[1,2,3]triazol-2-yl-phenyl)-methanone], the IC50 on CYP3A4 was 32 µM; on human orexin-1 receptor, 0.009 µM; on human orexin-2 receptor it was 0.506 µM.
`Cc1ccc(C(=O)N2CCOC[C@H]2Cc2cccc(-c3ncon3)c2)c(-n2nccn2)c1` [Example 81, (4-Methyl-2-[1,2,3]triazol-2-yl-phenyl)-[(R)-3-(3-[1,2,4]oxadiazol-3-yl-benzyl)-morpholin-4-yl]-methanone]: the IC50 on CYP3A4 was 33 µM; at human orexin-1 receptor, 0.002 µM; on human orexin-2 receptor, 0.212 µM.
As for `Cc1ccc(-n2nccn2)cc1C[C@@H]1COCCN1C(=O)c1cccc(C)c1-n1nccn1` [Example 124, [(R)-3-(2-Methyl-5-[1,2,3]triazol-2-yl-benzyl)-morpholin-4-yl]-(3-methyl-2-[1,2,3]triazol-2-yl-phenyl)-methanone], the IC50 worked out at 22 µM on CYP3A4, 0.009 µM on human orexin-1 receptor and 0.997 µM at human orexin-2 receptor.
Consider `O=C(c1ccccc1-n1nccn1)N1CCCC[C@H]1Cc1cccc(-n2nccn2)c1` [Ref. 3], for which the IC50 at CYP3A4 worked out at 6.1 µM; on human orexin-1 receptor it was 0.001 µM; at human orexin-2 receptor it was 0.012 µM.
Taken in the same sequence, the figures for `O=C(c1ccccc1-n1nccn1)N1CCOC[C@H]1Cc1cccc(-c2cccnn2)c1` [Example 48, [(R)-3-(3-Pyridazin-3-yl-benzyl)-morpholin-4-yl]-(2-[1,2,3]triazol-2-yl-phenyl)-methanone] were 9.6 µM, 0.039 µM and 4.44 µM.
Taken in the same sequence, the figures for `O=C(c1ccccc1-n1nccn1)N1CCOC[C@H]1Cc1cc(F)cc(-n2nccn2)c1` [Example 145, [(R)-3-(3-Fluoro-5-[1,2,3]triazol-2-yl-benzyl)-morpholin-4-yl]-(2-[1,2,3]triazol-2-yl-phenyl)-methanone] were 22 µM, 0.034 µM and 1.51 µM.
Taken in the same sequence, the figures for `O=C(c1cccc(Cl)c1-n1nccn1)N1CCOC[C@H]1Cc1cc(-c2ncon2)ccc1F` [Example 180, (3-Chloro-2-[1,2,3]triazol-2-yl-phenyl)-[(R)-3-(2-fluoro-5-[1,2,4]oxadiazol-3-yl-benzyl)-morpholin-4-yl]-methanone] were 36 µM, 0.019 µM and 0.83 µM.
Turning to `COc1ccc(C[C@@H]2COCCN2C(=O)c2ccccc2-n2nccn2)cc1-c1ncco1` [Example 9, [(R)-3-(4-Methoxy-3-oxazol-2-yl-benzyl)-morpholin-4-yl]-(2-[1,2,3]triazol-2-yl-phenyl)-methanone], the results for the IC50 at CYP3A4, at human orexin-1 receptor and on human orexin-2 receptor were 8.4 µM, 0.002 µM and 0.468 µM, respectively.
For `Cc1cccc(C(=O)N2C[C@@H](C)OC[C@H]2Cc2cc(-n3nccn3)ccc2F)c1-n1nccn1` [Example 118, [(2R,5R)-5-(2-Fluoro-5-[1,2,3]triazol-2-yl-benzyl)-2-methyl-morpholin-4-yl]-(3-methyl-2-[1,2,3]triazol-2-yl-phenyl)-methanone] the same measures were 23 µM, 0.01 µM and 0.728 µM.
As to `Cc1ccc(C(=O)N2CCOC[C@H]2Cc2cccc(-n3cccn3)c2)c(-n2nccn2)c1` [Example 22, (4-Methyl-2-[1,2,3]triazol-2-yl-phenyl)-[(R)-3-(3-pyrazol-1-yl-benzyl)-morpholin-4-yl]-methanone], the IC50 was 41 µM on CYP3A4, 0.003 µM at human orexin-1 receptor and 0.318 µM on human orexin-2 receptor.
Taken in the same sequence, the figures for `O=C(c1ccc(C(F)(F)F)cc1-n1nccn1)N1CCOC[C@H]1Cc1cc(-n2nccn2)ccc1F` [Example 138, [(R)-3-(2-Fluoro-5-[1,2,3]triazol-2-yl-benzyl)-morpholin-4-yl]-(2-[1,2,3]triazol-2-yl-4-trifluoromethyl-phenyl)-methanone] were 7.4 µM, 0.004 µM and 0.159 µM.
